# Where “and” joins values, the source holds several entries; their conditions need not be identical. Equal values may be shown once. Entries after “also recorded” stand apart in the source; their conditions may differ.
# How the values were obtained:
# [1] = Physicochemical properties of phloroglucinol; conditions: concentrations described; higher temperatures; sunlight
# human sense of taste [2] = test: Sweet taste intensity ranking by trained sensory discrimination panelists; type: in vivo
# From the text: (§1) Panelists were asked to rank the samples in order of sweet taste intensity from low sweet to high sweet. Each panelist tasted each sample twice during the study such that each sample was judged a total of 30 times.
# as §1
# Panelists were asked to rank the samples in order of sweet taste intensity from low sweet to high sweet. Each panelist was presented a replicate set to render a total of 32 judgment data points.
# human sense of taste [3] = test: Taste of sugar solutions with phloroglucinol and salt against sugar controls; type: in vivo; conditions: for phloroglucinol concentration required to achieve the sweetness of an 11% sugar solution: 8% sugar
# Experimental: (§2) General Tasting Procedure: Unless otherwise specified in a given example, tastings were performed by a single taster using a “sip, spit, rinse” protocol. Under this protocol, the taster: • a. sipped up to about 10 ml of a given solution and assessed the sweetness, mouthfeel, and other characteristics of the solution during its residence in the taster's mouth; • b. spit out the solution after making the assessment; and • c. rinsed with water to cleanse the palate before testing any further samples.
# Half remained as a low control. Salt (300 ppm) was added to the other half (the “variant”). An 11% sugar solution was prepared as a high control.
# human sense of taste [4] = test: Taste of phloroglucinol in water, alone or with salt; type: in vivo
# Experimental: as §2
# To analyze this effect, an experiment was conducted to determine whether NaCl could be used as a supplemental sweetness enhancer.
# human sense of taste [5] = test: Lab taste test (sip, spit, rinse) of sweetener solutions containing phloroglucinol against reference sweetener solutions; type: in vivo
# Experimental: as §2
# Reference solutions: 5%, 7%, and 9% aqueous sucrose (sugar) solutions were prepared.
# Reference solutions: 5%, 7%, and 9% aqueous sucrose solutions were prepared as in Example 1.
# Reference solutions: 5%, 7%, 8% and 9% sucrose solutions in aqueous pH 3.0 citrate buffer solutions (citric acid 2.26 g plus trisodium citrate 0.32 g in 2 L water) were prepared.
# Reference solutions: 2.5%, 3.5%, and 4% aqueous fructose (Sigma) solutions were prepared.
# Reference solutions: 5%, 7%, 8% and 9% aqueous glucose (Sigma) solutions were prepared.
# Reference solutions: 5%, 6%, 7%, 8% and 9% aqueous sucrose solutions were prepared. […] The variants were then tasted and assessed for their similarity to the reference solutions.
# Reference solutions: 8%, 9%, 10%, and 11% aqueous sucrose solutions were prepared.
# Reference solutions: 250 ppm and 320 ppm aqueous rebaudioside A solutions were prepared.
# human sense of taste [6] = test: Taste of QUAKER Instant Oatmeal containing phloroglucinol; type: in vivo
# Experimental: Sugar was added to unsweetened QUAKER Instant Oatmeal (IQO) Original flavor. A high sugar control comprising 8 g sugar per bag of IQO (29 g) was prepared. A low sugar control comprising 5 g sugar per bag of IQO (29 g) was also prepared. […] The high control, low control, and variant formulations were placed in individual beakers and combined with about 200 mL of hot water. The resulting mixtures were stirred and then tasted. Taste tests were conducted while the mixtures were still warm and after the mixtures had cooled to room temperature.
# The high and low controls described in Example 14 were again prepared. […] The high control, low control, and variant formulations were placed in individual beakers and combined with about 200 mL of hot water. The resulting mixtures were stirred and then tasted. Tasting was performed while the IQO was warm and after the IQO cooled to room temperature.
# human sense of taste [7] = test: Taste of sugar solutions with phloroglucinol and salt against sugar controls; type: in vivo; conditions: for Taste: body compared with 8% sugar control: 5% sugar in water
# human sense of taste [8] = test: Taste of beverages (cola, SIERRA MIST, diet cola) containing phloroglucinol; type: in vivo
# Experimental: Sources: A bottle of cola concentrate (HFCS-55) and a bottle of concentrate having ⅓ less HFCS (the “Brix-reduced syrup”) were obtained. […] Both concentrates were then used to make cola beverages (volume 4.5 carbonated water) in a 1 plus 5 throw manner.
# Experiments were conducted on a sugar reduced cola beverage. A control bottle of cola concentrate (HFCS-55) and a bottle of Brix reduced variant concentrate having 35% less HFCS than the control were used. […] Both concentrates were then used to make cola beverages with volume 4.5 carbonated water in a 1 plus 5 throw manner.
# Taste experiments were conducted for a diet cola beverage. Unsweetened diet cola concentrate was used. Control syrup 1 was made by adding 3000 ppm aspartame to the concentrate. Control syrup 2 was made by adding 2400 ppm rebaudioside M to the diet cola concentrate. […] All concentrates were then used to make diet cola beverages with volume 4.5 carbonated water in a 1 plus 5 throw manner.
# The finished control diet cola beverage 1 contained 500 ppm aspartame.
# A total of 5 diet cola tasters evaluated the four beverages.
# human sense of taste [9] = test: Taste of sugar solutions with phloroglucinol and supplemental sweetness enhancers; type: in vivo; conditions: Example 22: 500 ppm phloroglucinol, 350 ppm rebaudioside C, 8% sugar
# Experimental: as §2
# Three tasters conducted taste experiments on the blends identified in the table, below.
# Experiments were conducted utilizing phloroglucinol and rebaudioside C in a sugar solutions.
# Two testers tasted each of solutions 1 through 5, in the table above.
# Taste experiments were conducted with sugar solutions comprising phloroglucinol and one of rebaudioside B, rebaudioside M, and trilobatin as set forth in the table, below.
# Two testers tasted these solutions.
# Five aqueous solutions comprising sugar, phloroglucinol, and/or rubusoside were prepared as set forth in the table below and tested for sweetness.
# [10] = Example 25: 400 ppm phloroglucinol in 5% sucrose
# [11] = Example 26: 400 ppm phloroglucinol and 200 ppm sodium chloride in 5% sucrose
# [12] = Example 27: 800 ppm phloroglucinol in 8.475% sucrose
# [13] = Example 8: 250 ppm phloroglucinol in 250 ppm aqueous rebaudioside A
# [14] = Example 10, second taster: 250 ppm rebaudioside A with 800 ppm phloroglucinol
# [15] = Example 17: 800 ppm phloroglucinol, 400 ppm salt, 8% sugar in water
# [16] = Example 13: 800 ppm phloroglucinol in SIERRA MIST
smiles,measurement,setting,value
Oc1cc(O)cc(O)c1 [phloroglucinol],stability in solution,[1],"stable and does not precipitate out of solution at the concentrations described herein, or break down at higher temperatures or when exposed to sunlight"
same,"sweet taste increased to, as sucrose equivalent",human sense of taste [2]; [10],approximately 6.4%
same,sweetness enhancement,human sense of taste [2]; [10],approximately 28%
same,"sweet taste increased to, as sucrose equivalent",human sense of taste [2]; [11],approximately 6.6%
same,sweetness enhancement,human sense of taste [2]; [11],approximately 32%
same,statistical comparison with 11.3% sucrose solution,human sense of taste [2]; [12],statistically indistinguishable from the 11.3% solution
same,"sweet taste increased to, as sucrose equivalent",human sense of taste [2]; [12],approximately 11.76%
same,sweetness enhancement,human sense of taste [2]; [12],about 39%
same,phloroglucinol concentration required to achieve the sweetness of an 11% sugar solution,human sense of taste [3]; in the presence of 300 ppm salt,500 ppm
same,phloroglucinol concentration required to achieve the sweetness of an 11% sugar solution,human sense of taste [3]; no salt,800 ppm
same,"sweetness, as equivalent sugar solution","human sense of taste [3]; Example 15 variant 2: 8% sugar, 500 ppm phloroglucinol, 300 ppm salt",11 % sugar
same,sweetness compared with low control (no salt) and 11% sugar high control,"human sense of taste [3]; Example 15 variant: 8% sugar, 300 ppm phloroglucinol, 300 ppm salt","much sweeter than the low control, but not quite as sweet as the high control"
same,Taste,human sense of taste [4]; 300 ppm in water,No taste
same,sweet taste of phloroglucinol by itself,human sense of taste [4]; 300 ppm to 800 ppm in water,No sweet taste was observed; also recorded: does not have any taste
same,Taste,human sense of taste [4]; 400 ppm in water,No taste
same,Taste,"human sense of taste [4]; 400 ppm phloroglucinol, 100 ppm salt in water",No taste
same,Taste,human sense of taste [4]; 500 ppm in water,No taste
same,Taste,"human sense of taste [4]; 500 ppm phloroglucinol, 100 ppm salt in water",No taste
same,Taste,human sense of taste [4]; 600 ppm in water,No taste
same,Taste,"human sense of taste [4]; 600 ppm phloroglucinol, 100 ppm salt in water",No taste
same,"Taste, estimated sugar equivalent","human sense of taste [4]; 600 ppm phloroglucinol, 400 ppm salt in water",~1% sugar
same,Taste,human sense of taste [4]; 800 ppm in water,No taste
same,taste of phloroglucinol in the presence of salt,human sense of taste [4]; Example 15: with sodium chloride,slightly sweet
same,"sweetness, as equivalent aqueous sucrose reference solution","human sense of taste [5]; Example 1: 400 ppm phloroglucinol in 5% aqueous sucrose, references 5%, 7%, 9% sucrose",> 5% and ~7%
same,temporal profile and quality of sweet taste,human sense of taste [5]; Example 2: 800 ppm phloroglucinol in 5% aqueous sucrose,sweetness of the variant took a split of a second to show but the backend seemed even sweeter; also recorded: the sweet taste was clean without lingering
same,"sweetness, as equivalent sucrose reference solution","human sense of taste [5]; Example 3: 800 ppm phloroglucinol in 5% aqueous sucrose without buffer, references 5-9% sucrose in pH 3.0 citrate buffer",~8%
same,temporal profile and quality of sweet taste,"human sense of taste [5]; Example 3: 800 ppm phloroglucinol in 5% aqueous sucrose, references in pH 3.0 citrate buffer",sweetness of the variant took a split of a second to show but the backend seemed even sweeter; also recorded: the sweet taste was clean without lingering
same,"sweetness, as equivalent aqueous fructose reference solution",human sense of taste [5]; Example 4: 800 ppm phloroglucinol in 2.5% aqueous fructose,> 3.5% and ~4%
same,temporal profile of sweet taste,human sense of taste [5]; Example 4: 800 ppm phloroglucinol in 2.5% aqueous fructose vs 4% fructose,the variant solution was sweeter in backend
same,"sweetness, as equivalent aqueous glucose reference solution",human sense of taste [5]; Example 5: 800 ppm phloroglucinol in 5% aqueous glucose,~8% and < 9%
same,dose response of apparent sweetness (FIG. 1),"human sense of taste [5]; Example 6: 40, 100, 200, 400, 600, 800 ppm phloroglucinol in 5% aqueous sucrose",approximately linear correlation between phloroglucinol concentration and apparent sweetness
same,"sweetness, as equivalent aqueous rebaudioside A reference solution",human sense of taste [5]; [13],~320 ppm
same,"taste quality (backend, bitter aftertaste of rebaudioside A)",human sense of taste [5]; [13],a sweeter backend; also recorded: bitter aftertaste of rebaudioside A was not changed
same,bitterness of the variant solution,human sense of taste [5]; [14],did not change
same,"sweetness, as equivalent rebaudioside A reference solution",human sense of taste [5]; [14],~320 ppm
same,"sweetness, as equivalent aqueous sucrose reference solution","human sense of taste [5]; Examples 2, 10: 800 ppm phloroglucinol in 5% aqueous sucrose, references 5%, 7%, 9% sucrose",> 7% and < 9% and ~8%
same,"sweetness, as equivalent aqueous sucrose reference solution","human sense of taste [5]; Examples 7, 10, 11: 800 ppm phloroglucinol in 8% aqueous sucrose, first, second, third taster",> 10% and ~11% and > 11%
same,sweetness compared with low control (5 g sugar) and high control (8 g sugar),"human sense of taste [6]; Example 14: 5 g sugar and 137 mg phloroglucinol per bag of IQO (29 g), warm and room temperature",sweeter than the low control but not quite as sweet as the high control
same,sweetness compared with high control (8 g sugar),"human sense of taste [6]; Example 21: 5 g sugar, 100 mg phloroglucinol, 1 g D-psicose per bag of IQO (29 g)",sweetness similar to the high control
same,Taste: body compared with 8% sugar control,"human sense of taste [7]; 600 ppm phloroglucinol, 400 ppm salt",more body
same,Taste: body compared with 8% sugar control,"human sense of taste [7]; 800 ppm phloroglucinol, 400 ppm salt",more body
same,Taste: sweet taste as sugar equivalent,"human sense of taste [7]; Example 17: 600 ppm phloroglucinol, 600 ppm salt, 8% sugar in water",≥ 11 % sugar
same,Taste: body,human sense of taste [7]; [15],high body
same,Taste: sweet taste as sugar equivalent,human sense of taste [7]; [15],12 % sugar
same,Taste: sweet taste as sugar equivalent,"human sense of taste [7]; Example 17: 800 ppm phloroglucinol, no salt, 8% sugar in water",11 % sugar
same,Taste: sweet taste as sugar equivalent,"human sense of taste [7]; Example 17: 800 ppm phloroglucinol, no salt, 8% sugar in water, listed as Phloroglucinol",~11% sugar
same,sweetness of variant cola beverage compared with control cola (11.3 Brix),"human sense of taste [8]; Example 12: 1/3 less HFCS (8 Brix without phloroglucinol), 800 ppm phloroglucinol",equal
same,mouthfeel and flavor of variant cola beverage,"human sense of taste [8]; Example 12: 1/3 less HFCS, 800 ppm phloroglucinol",good mouthfeel; also recorded: more sour but with less caramel sweet flavor
same,sweetness after storage,"human sense of taste [8]; Example 12 cola, stored at 90° F. for 18 days",sweetness remained about the same
same,body and sourness,human sense of taste [8]; [16],good body; also recorded: Sourness was about the same
same,sweetness compared with untreated control,human sense of taste [8]; [16],much sweeter than the control
same,sweetness of variant cola beverage compared with control cola (11.3 Brix),"human sense of taste [8]; Example 19: 35% less HFCS (7.5 Brix), 400 ppm phloroglucinol and 1% D-psicose",equal
same,mouthfeel of variant cola beverage,human sense of taste [8]; Example 19: 400 ppm phloroglucinol and 1% D-psicose,very good mouthfeel
same,combination effect with rebaudioside C,human sense of taste [9],synergistic

# Source: US10932483B2, “Sweetness enhancer” (PepsiCo, Inc., priority 2014, dated 2021)
